Laboratory results reported in PubChem BioAssay (NCI).
Where “and” joins values, the source holds several entries; their conditions need not be identical. Identical values can stand only once.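 96-well plates; 48 h exposure; 5 concentrations. Endpoints by linear interpolation between flanking doses. Not reached: highest tested concentration assigned. GI50 marks 50% less growth. TGI denotes the concentration required for complete inhibition of growth.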

Key:
Test in all cases: inhibition of tumour cell growth, NCI panel, 48 h
NCI-H522 lung = tested on: NCI-H522 lung
SK-MEL-5 melanoma = tested on: SK-MEL-5 melanoma
NCI-H460 lung = tested on: NCI-H460 lung
SNB-75 CNS = tested on: SNB-75 CNS
HOP-92 NSCLC = tested on: HOP-92 NSCLC
HT29 colon = tested on: HT29 colon
786-0 renal = tested on: 786-0 renal
OVCAR-4 ovarian = tested on: OVCAR-4 ovarian
UACC-62 melanoma = tested on: UACC-62 melanoma
LOX IMVI melanoma = tested on: LOX IMVI melanoma

Row | Structure (SMILES) | GI50 (NCI-H522 lung) | TGI (NCI-H522 lung) | GI50 (SK-MEL-5 melanoma) | TGI (SK-MEL-5 melanoma) | GI50 (NCI-H460 lung) | TGI (NCI-H460 lung) | GI50 (SNB-75 CNS) | TGI (SNB-75 CNS) | GI50 (HOP-92 NSCLC) | TGI (HOP-92 NSCLC) | GI50 (HT29 colon) | TGI (HT29 colon) | GI50 (786-0 renal) | TGI (786-0 renal) | GI50 (OVCAR-4 ovarian) | TGI (OVCAR-4 ovarian) | GI50 (UACC-62 melanoma) | TGI (UACC-62 melanoma) | GI50 (LOX IMVI melanoma) | TGI (LOX IMVI melanoma)
1 | COc1ccc(-c2nn(-c3ccc(NC(=O)c4ccc(Cl)c(C(F)(F)F)c4)cc3)cc2-c2ccncc2)cc1Cl | 4.03 µM | > 100 µM | 1.33 µM | 3.84 µM | 0.441 µM | > 100 µM | 0.287 µM | 6.42 µM | 1.71 µM | 21.6 µM | 0.337 µM | 1.96 µM | 0.187 µM | 0.449 µM | 2.48 µM | > 100 µM | 1.07 µM | 5.02 µM |  | 
2 | Cc1ccc(NC(=O)CC/C(CC(=O)C(C)(C)C)=N/NC(=O)C(N)=O)cc1C |  | > 100 µM |  | > 100 µM |  | > 100 µM |  | > 100 µM |  | > 100 µM |  | > 100 µM |  | > 100 µM |  | > 100 µM |  | > 100 µM |  | 
3 | O=C(O)C1CCc2nnc(-c3ccccc3)n21 (stereo unspecified) |  | > 100 µM |  | > 100 µM |  | > 100 µM |  | > 100 µM |  |  |  |  |  | > 100 µM |  | > 100 µM |  | > 100 µM |  | 
4 | Cc1oc2nc[nH]c(=O)c2c1C(=O)/C=C/c1ccc(Cl)cc1 | 1.79 µM | 5.74 µM | 2.25 µM | 5.85 µM | 2.56 µM | 7.03 µM |  |  | 1.47 µM | 7.18 µM | 2.9 µM | 10.6 µM | 3.02 µM | 10.3 µM | 4.43 µM | 16.1 µM | 1.64 µM | 5.37 µM | 1.6 µM | 3.32 µM
5 | O=C(/C=C/C12c3ccccc3C(c3ccccc31)C1C(=O)N(c3ccccc3)C(=O)C12)c1ccc(Cl)cc1 (stereo unspecified) | 1.74 µM | 3.58 µM | 1.95 µM | 4.07 µM | 1.64 µM | 3.7 µM | 1.37 µM | 6.77 µM | 1.33 µM | 3.26 µM | 1.86 µM | 7.88 µM | 2.44 µM | 6.97 µM |  |  | 1.66 µM | 4.58 µM | 1.65 µM | 3.25 µM
6 | CC1(C)CCC[C@@]2(C)C1C[C@H](O)[C@@]1(C)O[C@@](C)([C@H](O)CO)CCC21 (stereo partly specified) |  | 89.8 µM |  | 44 µM |  | > 100 µM |  | 58.9 µM |  | 70.7 µM |  | 86 µM |  | > 100 µM |  | > 100 µM |  | 96.1 µM |  | 
7 | CCC1=C(C)/C(=C/c2[nH]c(C(Br)Br)c(CC)c2C)N=C1C(Br)Br |  | 38.1 µM |  | 32.1 µM |  | > 100 µM |  | 90.8 µM |  | > 100 µM |  | > 100 µM |  | > 100 µM |  |  |  | > 100 µM |  | > 100 µM
8 | CCOC(=O)C1=C(C)NC2SC(=O)/C(=C\c3ccccc3Cl)N2C1c1ccccc1 (stereo unspecified) | > 100 µM | > 100 µM | 50.2 µM | > 100 µM | > 100 µM | > 100 µM | > 100 µM | > 100 µM | > 100 µM | > 100 µM | > 100 µM | > 100 µM | > 100 µM | > 100 µM |  |  | > 100 µM | > 100 µM | > 100 µM | > 100 µM
9 | CC1(C)OC(=O)[C@@](C)([C@H](O)c2ccccc2)O1 |  | > 100 µM |  | > 100 µM |  | > 100 µM |  | > 100 µM |  | > 100 µM |  | > 100 µM |  | > 100 µM |  | > 100 µM |  | > 100 µM |  | 
10 | CC(N=C(N)N)C(=O)O (stereo unspecified) |  | > 100 µM |  | > 100 µM |  |  |  | > 100 µM |  |  |  | > 100 µM |  | > 100 µM |  | > 100 µM |  | > 100 µM |  | > 100 µM
11 | CN1CCN(CCCOc2cccc3nc(Nc4ccc(Cl)c(F)c4)ccc23)CC1 | 1.75 µM | 3.33 µM | 1.78 µM | 3.17 µM | 1.91 µM | 3.7 µM |  |  | 1.33 µM | 5.27 µM | 1.41 µM | 2.8 µM | 1.67 µM | 3.22 µM | 3.13 µM | 12.4 µM | 2.05 µM | 4.1 µM | 1.64 µM | 3.17 µM
12 | C/C=C(\C)c1cc(=O)c2c(C)cc3c(c2o1)C(=O)c1c(O)c(C2CC(C)(N(C)C)C(O)C(C)O2)cc(C2CC(N(C)C)C(O)C(C)O2)c1C3=O (stereo unspecified) |  |  |  |  |  |  |  |  |  |  |  | 1.72 µM and 6.46 µM |  | 0.946 µM |  | 3.64 µM and 11.2 µM |  |  |  | 
13 | O=C(Cn1c(=O)c(-c2ccccc2)nc2ccccc21)c1ccc(Cl)cc1 | > 100 µM | > 100 µM | > 100 µM | > 100 µM | 75.6 µM | > 100 µM |  |  | 27.2 µM | 65 µM | 41.7 µM | > 100 µM | 27 µM | 86.6 µM | 33.4 µM | > 100 µM | > 100 µM | > 100 µM | 55 µM | > 100 µM
14 | NC(=O)c1cc(-c2ccncc2)cc(-c2ccccc2)c1N | 7.68 µM | > 15.8 µM | 14.7 µM | > 25 µM | 22.6 µM | > 25 µM | 4.76 µM | 19.6 µM |  |  | > 25 µM | > 25 µM | 15.9 µM | > 25 µM | > 20.6 µM | > 25 µM | > 24.1 µM | > 25 µM | > 22.7 µM | > 25 µM
15 | COc1cc(=O)oc(/C=C/C=O)c1C |  | 35.3 µM |  | 38.4 µM |  |  |  | 32.8 µM |  | 53.4 µM |  | 40.7 µM |  | 42 µM |  | 32.5 µM |  | 32.8 µM |  | 16.6 µM
16 | Cc1ccc(C2CC(c3ccc([N+](=O)[O-])cc3)=Nc3ccccc3S2)cc1 (stereo unspecified) |  | 73.3 µM |  | 38 µM |  | > 100 µM |  | 82 µM |  |  |  | 95.5 µM |  | 28 µM |  | > 100 µM |  | > 100 µM |  | 34.6 µM
17 | COc1cc([N+](=O)[O-])c(S(=O)(=O)O)cc1NS(=O)(=O)c1ccc(C)cc1 |  | > 100 µM |  | > 100 µM |  | > 100 µM |  | > 100 µM |  |  |  | > 100 µM |  | > 100 µM |  | > 100 µM |  | > 100 µM |  | > 100 µM
18 | C=C[C@@]1(C)CCC2(O)C(CCC3C2(C)CCC[C@@]3(C)COC(=O)CC(=O)OC)C1 (stereo partly specified) |  | 32.4 µM |  | 32.1 µM |  | > 100 µM |  | 48.4 µM |  |  |  | 33.2 µM |  | > 100 µM |  | 33.3 µM |  | 32.3 µM |  | 31.1 µM
